Data set [1] has as its target T1, eqBuChE (equine serum BuChE) (Equus caballus, UniProt P81908).
T1 construct: purchased Sigma-Aldrich Co; host or cells: equine serum (natural source)
As to the kind of experiment: biochemical. The conditions noted are these: for inhibition at 25 µM: read-out: Inhibition percent rate eqBuChE; for SI: SI = IC50 (AChE)/IC50 (BuChE). The method, then:
(§1) 2.1 Inhibition experiments of AChE and BuChE. The modified Ellman method was
(§2) performed to test the AChE and BChE inhibitory ability of the compounds, using
(§3) eeAChE and eqBChE (Sigma-Aldrich Co.). […]

The target in data set [2] is T2, eeAChE (electric eel AChE) (Electrophorus electricus, UniProt O42275).
T2 construct: purchased Sigma-Aldrich Co; host or cells: electric eel (natural source)
T2 sequence (O42275 24-633): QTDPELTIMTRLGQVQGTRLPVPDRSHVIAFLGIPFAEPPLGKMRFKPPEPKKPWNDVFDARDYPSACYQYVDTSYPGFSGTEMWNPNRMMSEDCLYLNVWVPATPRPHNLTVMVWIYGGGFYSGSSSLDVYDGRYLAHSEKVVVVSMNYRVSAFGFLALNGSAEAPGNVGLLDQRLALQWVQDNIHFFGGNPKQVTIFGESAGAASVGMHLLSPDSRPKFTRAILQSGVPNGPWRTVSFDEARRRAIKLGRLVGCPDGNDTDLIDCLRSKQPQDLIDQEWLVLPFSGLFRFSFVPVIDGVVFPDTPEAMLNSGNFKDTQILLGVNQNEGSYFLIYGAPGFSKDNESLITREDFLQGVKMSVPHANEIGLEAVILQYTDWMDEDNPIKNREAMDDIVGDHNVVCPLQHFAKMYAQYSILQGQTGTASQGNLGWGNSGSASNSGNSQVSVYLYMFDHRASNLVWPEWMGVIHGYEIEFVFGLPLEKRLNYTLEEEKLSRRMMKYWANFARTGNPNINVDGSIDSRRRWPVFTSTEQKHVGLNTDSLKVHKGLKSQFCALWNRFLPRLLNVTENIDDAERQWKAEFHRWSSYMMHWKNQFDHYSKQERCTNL
As to the kind of experiment: biochemical. The conditions noted are these: for inhibition at 25 µM: read-out: Inhibition percent rate eeAChE. The method, then:
as §1, §2, §3

In data set [3] the test system is NO release in LPS-stimulated BV-2 cells. Description: NO release in LPS-stimulated BV-2 cells (Griess method). The class given is cell-based. The conditions noted are these: 1, 3, and 9 μM; LPS 1 μg/mL (model 31.9 μM).
Data set [4] is described as follows: Stability in artificial gastrointestinal fluids. Type of data set: in vitro ADME. The conditions noted are these: 37 °C. The method, then: Based on the above data, 5a was chosen to evaluate the stabilities by artificial gastrointestinal solution, blood plasma, and rat liver microsomes.
Cell viability(%) = (Asample-Ablank)/(Acontrol-Ablank) ×100%. Asample, Ablank and Acontrol
medium, or vehicle, respectively.
method described in China Pharmacopoeia (version 2015). The artificial gastric fluid
described above without pepsin and trypsin. Compound 5a (1 mg/mL, n = 3) was
Supernatant was collected by
were processed by GraphPad Prism 8.0 software.
Solution B (25 mL) contained

The test system of data set [5] is IL-1β production in LPS-stimulated BV-2 cells. As to the kind of experiment: IL-1β production in LPS-stimulated BV-2 cells (ELISA). The class given is cell-based.
A short description of data set [6]: Rat liver microsomes stability. Type of data set: in vitro ADME. The conditions noted are these: n = 3, read-out: t1/2 in rat liver microsomes.
Experimental: microsomes was purchased from Dalian Meilun Biotechnology Co., Ltd, DaLian,
China. Briefly, solution A (10 mL) contained G-6-P-Na2 (200 mg), NADPNa2 (200
G-6-P-DH (1000 U), Na-Citrate2 (200 mg), and H2O was used as a solvent. NADPH
solution (1 mM) was composed by solution A and solution B (v/v = 5:1). Compound
was dissolved in DMSO to obtain 1 mg/mL stock solution. Rat liver microsomes was
added to compound solution (the final concentration of compound and rat liver
microsomes was 10 μg/mL and 0.5 mg/mL, respectively) (n = 3). The reaction was
started by the addition of NADPH. The total mixture (200 μL) was incubated at 37 °C.
Cold methanol (600 μL) was added at 0, 5, 15, 20, 30, 45 and 60 min , respectively, to
stop the reaction. Samples were centrifuged at 13000 rpm fo r 10 min at 4 °C, and 100
μL supernatant was removed and analyzed by UPLC-MS/MS. The stability results
were presented as % remaining vs. time.
For data set [7], the system named is PC12 cells. Description: Cytotoxicity on PC12 cells, CCK-8 assay. The class given is cell-based. The conditions noted are these: at 30 μM.
Text: (§4) 2.3 Neuroprotective effects on Aβ25-35-induced PC12 cells injury.
(§5) (1) Materials and reagents. PC12 cell (Purchased from the Cell Bank of Shanghai
(§6) Institute of Cell Biology, Chinese Academy of Sciences),
(§7) DME H-21 4.5g/Liter Glucose(Gibco), Fetal bovine serum (Vicente),
(§8) cellcountingkit-8, CCK8(Shanghai Biyuntian Biotechnology Co. , Ltd), 1%
(§9) penicillin-streptomycin (Double antibody, cellmax), Double antibody (Beijing
(§10) Co., Ltd), a phosphate -buffered solution , (PBS, Beijing Solebao Technology Co., Ltd),
(§11) (2) Istrument. Cell culture incubator(Thermo Scientific), Ultra-clean
(§12) workbench(Jiangsu Sujing Group Co., Ltd), Inverted phase-contrast fluorescence
(§13) microscope(Japan Nikon Corporation), Varioska full-wavelength multifunction
(§14) microplate reader(Thermo Scientific), Digital display constant temperature water bath
(§15) pot(Bangsi Instrument Technology Co., Ltd), 1/100,000 electronic balance(Shanghai
Jinghai Instrument Co., Ltd).
(§16) In this experiment, the cell viability was detected using CCK-8 kit and
(§17) (3) PC12 Cell complete medium formulation. Recover PC12 cells, use 10% fetal
(§18) bovine serum 50mL, 5% equine serum 25mL and 1% penicillin mixture 5mL, and
(§19) finally add DMEM high-sugar medium solution to 500mL, that is, to obtain.
(§20) (4) PC12 Cell Recover. Quickly remove the cells from the -80 °C freezer, shake
in a 37 °C water bath pot to dissolve quickly, disinfect the cryopreservation tube and […]
The test system of data set [8] is Aβ25-35-induced PC12 cell injury. As to the kind of experiment: cells. The conditions noted are these: Rattus norvegicus, PC-12, read-out: PC12 cells viability.
Text: as §4, §5, §6, §7, §8, §9, §10, §11, §12, §13, §14, §15
Jinghai Instrument Co., Ltd).
as §16, §17, §18, §19, §20
in a 37 °C water bath pot to dissolve quickly, disinfect the cryopreservation tube and
transfer it to the ultra-clean table, transfer the cryopreservation in the cryopreservation
tube to a 15 mL centrifuge tube, add 3 mL of complete medium, gently blow well
with a pipette, centrifuge at 1000 *g at room temperature for 5 min, discard the upper
layer of medium, add 4 mL complete medium again, gently blow well and transfer to
the culture flask, transfer to the incubator at 37 °C, 5% CO2, saturation humidity, and
change the liquid every other day.
(5) PC12 Cell Passage. During the logarithmic growth phase of cell growth, add
complete medium to stop digestion, transfer to a 15 mL centrifuge tube, centrifuge at
1000 *g at room temperature for 5 min, discard the upper layer medium, 1:4
(7) Preparation of sample solutions. […]
The subject of data set [9] is Kunming mice. As to the kind of experiment: Acute toxicity (safety profile) in mice. The conditions noted are these: 500 mg/kg, intragastric administration.
Experimental: gender) were supplied by the Center of Experimental Animals of Sichuan Academy of
Chinese Medicine Sciences (eligibility certiﬁcation no. SCXK-Chuan2018-19). Mice
20−22 °C with a relative humidity of 60−70%. Sterile food and water were provided
according to institutional guidelines. Prior to each experiment, mice were fasted
overnight and allowed free access to water.
1000 mg/kg (n = 6 per group) by intragastric administration. After the administration
occasionally thereafter for 14 days for the onset of any delayed effects. All animals
were sacrificed on the 14th day after drug administration and were macroscopically
Data set [10] is described as follows: Plasma stability. The class given is in vitro ADME. The conditions noted are these: rat, n = 3, read-out: t1/2 in blood plasma (converted).
Experimental: (3) The stability of compound was performed in rat plasma.
mg/mL) were dissolved in DMSO, and the reaction (10 μg/mL, n = 3) was prepared
by mixing 198 μL plasma with 2 μL compounds solution, then incubated in 37 ◦C and
stopped by adding 600 μL methanol at time of 0, 0.5, 1, 1.5, 2 and 3 h, followed by
centrifugation at 13,000 rpm for 10 min at 4 °C. The supernatant was dried and
redissolved in 100 μL methanol. After centrifugation, the supernatant was analyzed
by UPLC-MS/MS. The stability data was presented as remaining percentage vs time.
Data set [11] concerns scopolamine-induced cognitive dysfunction in mice. Description: Step-down passive avoidance task, scopolamine-induced cognitive dysfunction. The class given is in vivo. The method, then: The in vivo effects of 5a were determined through the step-down passive avoidance task. […]. page 9: […]
Assay method. The step-down passive avoidance task was employed to investigate
the effects of 5a on scopolamine-induced memory impairment.21,22 Sixty mice were
random divide into six groups. […]

In data set [12] the test system is IL-6 production in LPS-stimulated BV-2 cells. Description: IL-6 production in LPS-stimulated BV-2 cells (ELISA). The class given is cell-based. The conditions noted are these: LPS 1 μg/mL.
Data set [13] addresses T3, eqBuChE (Equus caballus, UniProt P81908).
T3 construct: purchased Sigma-Aldrich Co; host or cells: equine serum (natural source)
Type of data set: biochemical, equine. An excerpt:
Further, the recovery capability of BuChE inhibitory effect after dilution was monitored by time.
Figure 2.

For data set [14], the system named is BV-2 cells. As to the kind of experiment: Cytotoxicity on BV-2 cells, CCK-8 assay. The class given is cell-based. The conditions noted are these: at 10 μM. The method, then:
5a was chosen to evaluate the anti-inflammation property through testing the production of IL-1β, IL-6, and NO in LPS-induced BV-2 cells[25]^,[26]. First of all, the cytotoxicity of 5a was determined through the CCK-8 assay.
2.1 Inhibition experiments of AChE and BuChE. The modified Ellman method was performed to test the AChE and BChE inhibitory ability of the compounds, using eeAChE and eqBChE (Sigma-Aldrich Co.). The detailed procedure referenced our […]
2.2 Anti-inflammatory property. BV-2 cells were cultured in DMEM containing 10% fetal bovine serum, 100 U/mL penicillin, 100 U/mL streptomycin, and 1% nonessential amino acid at 37℃ with 5% CO2.
BV-2 cells in logarithmic growth stage were digested and centrifuged, and then resuspended in DMEM medium containing 1% penicillin-streptomycin and 10% fetal bovine serum. The cells was adjusted to 1.2 × 10^4 cells/well, and then seeded evenly in 96-well cell culture plates. The cells were incubated for 36 h at 37℃ with 5% CO2. […]
BV-2 cells (2 × 10^5 cells/well) were seeded in a 24-well cell culture plates. […] The content of NO in cell culture supernatant was determined by Griess method, and the levels of cytokines IL-6 and IL-1β in cell culture supernatant were determined by IL-6 ELISA kit and IL-1β ELISA kit, respectively.

The target in data set [15] is cholinesterase. On the set-up: method as in PMID 11429429. The conditions noted are these: read-out: IC50 anticholinesterase activity; cited from earlier work.
The mark [16] stands for this setting: mean ± SD, read-out: IC50 ± SD eqBuChE.
Where [17] appears, read: mean ± SD, read-out: IC50 ± SD eeAChE.

SMILES strings stand for the structures. “And” between values parts separate entries of the source, which are not always exact repeats. Equal values may be shown once. Read-outs that look alike come from different tables or passages of the source.

The text below walks through data of publication PMC10327518 (Journal of Enzyme Inhibition and Medicinal Chemistry, 2023).

T1 sequence (P81908 whole entry): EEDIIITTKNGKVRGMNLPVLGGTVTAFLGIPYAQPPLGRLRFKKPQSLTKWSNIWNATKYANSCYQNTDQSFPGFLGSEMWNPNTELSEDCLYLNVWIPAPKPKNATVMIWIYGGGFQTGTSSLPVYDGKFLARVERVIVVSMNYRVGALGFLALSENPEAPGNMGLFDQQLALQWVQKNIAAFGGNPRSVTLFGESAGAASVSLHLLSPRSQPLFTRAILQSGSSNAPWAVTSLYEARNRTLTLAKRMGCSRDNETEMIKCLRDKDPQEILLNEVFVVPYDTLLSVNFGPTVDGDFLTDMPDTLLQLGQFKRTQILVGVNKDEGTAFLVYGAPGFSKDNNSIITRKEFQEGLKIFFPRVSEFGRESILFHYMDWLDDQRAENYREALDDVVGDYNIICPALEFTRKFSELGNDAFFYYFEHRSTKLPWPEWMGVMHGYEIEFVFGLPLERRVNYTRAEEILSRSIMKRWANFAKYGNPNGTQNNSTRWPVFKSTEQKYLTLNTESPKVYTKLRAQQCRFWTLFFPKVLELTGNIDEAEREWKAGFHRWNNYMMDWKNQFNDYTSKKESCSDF
T3 sequence (P81908 whole entry): as above

As for `O=C(O)c1ccc(O)cc1O` [Compound 1a, 2,4-dihydroxybenzoic acid], the inhibition at 25 µM in data set [1] worked out at 25.8 ± 0.93%; in data set [2], 16.3 ± 0.17%.

On to `O=C(O)c1cc(O)ccc1O` [Compound 1b, 2,5-dihydroxybenzoic acid], for which the results for the inhibition at 25 µM in data set [1] and in [2] were 18.2 ± 0.67% and 20.6 ± 1.2%, respectively.

Take `CN(C)C(=O)Oc1ccc(C(=O)N2CCC(Cc3ccccc3)CC2)c(OC(=O)N(C)C)c1` [Compound 5a, 4-(4-Benzylpiperidine-1-carbonyl)-1,3-phenylene bis(dimethylcarbamate)]: the “Release volume of NO” value in data set [3] was “remarkably declined”. Also, the Residual amount in data set [4] (after 8 h incubation in artificial gastric juice) was found to be 95.6%; in data set [4] (after 8 h incubation in artificial intestinal juice), 110.6%; in data set [4] (after 8 h incubation in blank gastric juice), 99.5%; in data set [4] (after 8 h incubation in blank intestinal juice), 97.5%. Also, the “Level of IL-1β” value was 67.2 pg/mL in [5] (5a 1 μM, LPS 1 μg/mL (model 302.7 pg/mL)); 90.9 pg/mL in data set [5] (5a 3 μM, LPS 1 μg/mL); 163.4 pg/mL in data set [5] (5a 9 μM, LPS 1 μg/mL). For the same compound, the half-life at 10 μg/mL in data set [6] is 0.32 h; in data set [10], 3.25 h. In addition, the “Cytotoxicity on PC12 cells” value in [7] is listed as “no obvious cytotoxicity”. Further, the viability at 1 µM in data set [8] was found to be 61.7%. Besides, in [8], the viability at 3 µM turned out to be 68.6%. In addition, in data set [8], the viability at 9 µM was 83.3%. Besides, the “Abnormal behaviour (safety profile)” value in [9] is reported as “did not present abnormal behaviour”. The Step-down latency in data set [11] (5a 1.23 mg/kg, scopolamine 2.0 mg/kg) is 140.1 s; in data set [11] (5a 2.45 mg/kg, scopolamine 2.0 mg/kg), 77.8 s; in data set [11] (5a […], scopolamine 2.0 mg/kg), 105.2 s. For the same compound, the “Level of IL-6” value in data set [12] (5a 3 μM) came to 505.3 pg/mL; in [12] (5a 9 μM) it was 971.1 pg/mL. This compound also yielded a BuChE activity recovered in data set [13] (0.1 × IC50, at 120 min, Figure 2(B)) of 63.9%. Moreover, the “BChE activity (% control)” value in data set [13] (1*IC50, Figure 2(A)) is reported as 48.6 % control; in data set [13] (diluted to 0.1*IC50, Figure 2(A)), 46.7 % control. Also, in [13] (after dilution to 0.1 × IC50, text on Figure 2(A)), the eqBuChE activity restored result is on record as “no significant recovery”. Also, the “Type of inhibition (reversibility)” value in data set [13] (from recovery after dilution) is “pseudo-irreversible”. In [14], the “Cytotoxicity on BV-2 cells” value is “did not produce significant cytotoxicity”. Also, the half-maximal inhibitory concentration (IC50) worked out at 0.53 ± 0.01 µM in [1] and 7.8 ± 0.36 µM in data set [2]. In data set [1], the SI amounted to 14.7.

With `CCN(C)C(=O)Oc1ccc(C(=O)N2CCC(Cc3ccccc3)CC2)c(OC(=O)N(C)CC)c1` [Compound 5b, 4-(4-Benzylpiperidine-1-carbonyl)-1,3-phenylene bis(ethyl(methyl)carbamate)], the figures for the half-inhibitory concentration (IC50) in [1] and in data set [2] were 2.6 ± 1.8 µM and 6.3 ± 0.41 µM, respectively. Besides, the SI in data set [1] is given as 2.4.

In [1], `CC(C)N(C(=O)Oc1ccc(C(=O)N2CCC(Cc3ccccc3)CC2)c(OC(=O)N(C(C)C)C(C)C)c1)C(C)C` [Compound 5c, 4-(4-Benzylpiperidine-1-carbonyl)-1,3-phenylene bis(diisopropylcarbamate)] returned an SI of 0.66. The 50% inhibitory concentration (IC50) was determined as 10.8 ± 0.56 µM in data set [1] (setting [16]) and 7.1 ± 0.23 µM in data set [2] (setting [17]).

`O=C(Oc1ccc(C(=O)N2CCC(Cc3ccccc3)CC2)c(OC(=O)N2CCCC2)c1)N1CCCC1` [Compound 5d, 4-(4-Benzylpiperidine-1-carbonyl)-1,3-phenylene bis(pyrrolidine-1-carboxylate)] gave an SI in [1] of 2.6. Moreover, the results for the IC50 in [1] (setting [16]) and in data set [2] (setting [17]) were 8.7 ± 0.93 µM and 22.3 ± 1.8 µM, respectively.

In [1], `O=C(Oc1ccc(C(=O)N2CCC(Cc3ccccc3)CC2)c(OC(=O)N2CCOCC2)c1)N1CCOCC1` [Compound 5e, 4-(4-Benzylpiperidine-1-carbonyl)-1,3-phenylene bis(morpholine-4-carboxylate)] returned an SI of 1.4. The figures for the IC50 in data set [1] (setting [16]) and in [2] (setting [17]) were 13.1 ± 0.72 µM and 18.3 ± 0.87 µM, respectively.

Regarding `CN(C)C(=O)Oc1ccc(OC(=O)N(C)C)c(C(=O)N2CCC(Cc3ccccc3)CC2)c1` [Compound 5f, 2-(4-Benzylpiperidine-1-carbonyl)-1,4-phenylene bis(dimethylcarbamate)], the IC50 in data set [1] was 16.3 ± 0.86 µM; in data set [2] it was 5.2 ± 0.35 µM. The same compound displayed an SI in data set [1] of 0.32.

As for `CCN(C)C(=O)Oc1ccc(OC(=O)N(C)CC)c(C(=O)N2CCC(Cc3ccccc3)CC2)c1` [Compound 5g, 2-(4-Benzylpiperidine-1-carbonyl)-1,4-phenylene bis(ethyl(methyl)carbamate)], in data set [1], the 50% inhibitory concentration (IC50) came out at 13.5 ± 0.52 µM and the SI was found to be 0.36. Moreover, the IC50 in data set [2] came to 4.9 ± 0.68 µM.

With `CC(C)N(C(=O)Oc1ccc(OC(=O)N(C(C)C)C(C)C)c(C(=O)N2CCC(Cc3ccccc3)CC2)c1)C(C)C` [Compound 5h, 2-(4-Benzylpiperidine-1-carbonyl)-1,4-phenylene bis(diisopropylcarbamate)], in data set [1], the SI is reported as 0.49. The IC50 in [1] (setting [16]) is 16.7 ± 1.2 µM; in data set [2] (setting [17]), 8.2 ± 0.67 µM.

`COc1cc2c(cc1OC)C(=O)C(CC1CCN(Cc3ccccc3)CC1)C2` (stereo not drawn) [Donepezil, donepezil, reference compound]: in data set [11] (donepezil 2.0 mg/kg, scopolamine 2.0 mg/kg (model 42.1 s)), the Step-down latency is given as 144.3 s.

As for `CCN(C)C(=O)Oc1cccc([C@H](C)N(C)C)c1` [Rivastigmine, rivastigmine, reference compound], in data set [13], the “BChE activity (% control)” value is 53.2 % control and 49.8 % control; the BuChE activity recovered is on record as 68.7%; the “Type of inhibition (reversibility)” value is “pseudo-irreversible”; the eqBuChE activity restored result is recorded as “no significant recovery”.

As to `O=C(O)c1ccccc1O` [SA, Salicylic acid], the half-maximal inhibitory concentration (IC50) in data set [15] was 346 µM.
